Laboratory results from patent publication US9884063B2, “Amido-substituted azole compounds” (Bayer Pharma Aktiengesellschaft, priority 2014, dated 2018).

Legend:
[1] = molecular target: T1, TNKS1 (Homo sapiens, UniProt O95271); experiment: Modified TNKS1 Assay 2 (auto-parsylation, [3H]-NAD+ SPA); type: biochemical; conditions: 6 nM TNKS1, 96 well
T1 sequence (O95271 1-1327): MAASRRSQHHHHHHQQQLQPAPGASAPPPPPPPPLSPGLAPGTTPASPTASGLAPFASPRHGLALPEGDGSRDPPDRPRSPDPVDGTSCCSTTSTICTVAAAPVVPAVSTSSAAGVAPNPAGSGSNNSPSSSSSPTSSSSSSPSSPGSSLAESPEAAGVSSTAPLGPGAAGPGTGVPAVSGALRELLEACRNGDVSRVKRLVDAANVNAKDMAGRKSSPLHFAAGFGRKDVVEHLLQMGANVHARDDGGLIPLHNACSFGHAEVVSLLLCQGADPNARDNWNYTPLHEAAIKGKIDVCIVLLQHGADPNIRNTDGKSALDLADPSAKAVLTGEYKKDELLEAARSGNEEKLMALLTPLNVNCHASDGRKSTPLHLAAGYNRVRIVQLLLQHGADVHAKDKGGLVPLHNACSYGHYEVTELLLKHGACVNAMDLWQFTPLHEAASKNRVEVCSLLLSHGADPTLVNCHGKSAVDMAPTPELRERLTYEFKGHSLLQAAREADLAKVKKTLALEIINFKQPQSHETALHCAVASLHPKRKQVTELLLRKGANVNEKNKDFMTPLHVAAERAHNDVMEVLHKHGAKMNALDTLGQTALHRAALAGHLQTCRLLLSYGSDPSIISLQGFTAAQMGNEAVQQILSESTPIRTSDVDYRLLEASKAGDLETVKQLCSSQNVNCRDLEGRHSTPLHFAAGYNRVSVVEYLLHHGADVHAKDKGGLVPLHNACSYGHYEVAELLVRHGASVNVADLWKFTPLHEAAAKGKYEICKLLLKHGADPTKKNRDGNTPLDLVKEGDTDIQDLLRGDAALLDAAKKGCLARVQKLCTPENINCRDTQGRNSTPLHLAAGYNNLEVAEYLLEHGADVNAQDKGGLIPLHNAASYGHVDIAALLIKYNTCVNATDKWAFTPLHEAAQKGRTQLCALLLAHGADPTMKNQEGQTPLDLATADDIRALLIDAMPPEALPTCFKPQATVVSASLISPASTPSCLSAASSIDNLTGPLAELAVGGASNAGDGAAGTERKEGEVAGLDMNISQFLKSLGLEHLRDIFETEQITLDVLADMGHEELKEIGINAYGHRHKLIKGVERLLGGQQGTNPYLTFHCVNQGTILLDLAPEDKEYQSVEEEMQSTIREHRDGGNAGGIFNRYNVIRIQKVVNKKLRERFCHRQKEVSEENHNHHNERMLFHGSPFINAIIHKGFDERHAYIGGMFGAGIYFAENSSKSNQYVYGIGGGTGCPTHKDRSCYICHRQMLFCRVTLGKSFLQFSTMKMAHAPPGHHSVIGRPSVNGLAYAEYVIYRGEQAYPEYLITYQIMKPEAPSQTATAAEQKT

[2] = tested on: HEK293 FOP control reporter cell line; experiment: HEK293 FOP Assay (FOP control vector luciferase reporter); type: cell-based; conditions: Homo sapiens
Summary of the method: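 Compound series 50 μM to 15 nM, 3.16-fold steps, were diluted in CAFTY buffer (pH 7.4, 2 mM Ca2+, 0.01% BSA) and tested alongside the TOP reporter line. Human Wnt-3a was added at 2500–5 ng/ml in two-fold steps. The control HEK293 line stably holds an FOP vector whose TCF elements are randomized and non-functional.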

[3] = HEK293 FOP control reporter cells, 16 hours, luciferase, dilution series from 50 μM
[4] = HEK293 FOP control reporter cell line, 16 hours incubation, compound dilution series 50 μM to 15 nM

SMILES | IC50 [1] [µM] | IC50 [2, 3] [µM] | IC50 [2, 4] [µM]
O=C(Nc1ccc(NC(=O)c2[nH]cnc2C(=O)N2CCOCC2)cc1)c1ccc(F)cc1Cl [Example 29, N-{4-[(2-chloro-4-fluorobenzoyl)amino]phenyl}-5-(morpholin-4-ylcarbonyl)-1H-imidazole-4-carboxamide] | 2.1 | ≥ 50 | –
O=C(Nc1ccc(NC(=O)c2[nH]cnc2C(=O)NCCN2CCCCC2)cc1)c1ccc(F)cc1Cl [Example 32, N^4-{4-[(2-chloro-4-fluorobenzoyl)amino]phenyl}-N^5-[2-(piperidin-1-yl)ethyl]-1H-imidazole-4,5-dicarboxamide] | 0.009 | 42 | 30
CNC(=O)c1nc[nH]c1C(=O)Nc1ccc(NC(=O)c2c(Cl)cccc2C(F)(F)F)cc1 [Example 36, N^5-(4-{[2-chloro-6-(trifluoromethyl)benzoyl]amino}phenyl)-N^4-methyl-1H-imidazole-4,5-dicarboxamide] | > 10 | ≥ 50 | –
CCc1ccccc1C(=O)Nc1ccc(NC(=O)c2[nH]cnc2C(=O)NC)cc1 [Example 39, N^5-{4-[(2-ethylbenzoyl)amino]phenyl}-N^4-methyl-1H-imidazole-4,5-dicarboxamide] | 2.7 | 5.5 | 5.5
CN1CC2(C1)CN(C(=O)c1nc[nH]c1C(=O)Nc1ccc(NC(=O)c3ccc(F)cc3Cl)cc1)C2 [Example 46, N-{4-[(2-chloro-4-fluorobenzoyl)amino]phenyl}-4-[(6-methyl-2,6-diazaspiro[3.3]hept-2-yl)carbonyl]-1H-imidazole-5-carboxamide] | 0.68 | – | 12
O=C(Nc1ccc(NC(=O)c2[nH]cnc2C(=O)NCCC2CCCC2)cc1)c1cc(F)c(F)cc1Cl [Example 48, N^5-{4-[(2-chloro-4,5-difluorobenzoyl)amino]phenyl}-N^4-(2-cyclopentylethyl)-1H-imidazole-4,5-dicarboxamide] | > 10 | – | 17
CNC(=O)c1nc[nH]c1C(=O)Nc1ccc(NC(=O)c2ccc(F)cc2Br)cc1 [Example 56, N^5-{4-[(2-bromo-4-fluorobenzoyl)amino]phenyl}-N^4-methyl-1H-imidazole-4,5-dicarboxamide] | 0.53 | – | 10
CNC(=O)c1nc[nH]c1C(=O)Nc1ccc(NC(=O)c2ccccc2OC)cc1 [Example 60, N^5-{4-[(2-methoxybenzoyl)amino]phenyl}-N^4-methyl-1H-imidazole-4,5-dicarboxamide] | > 10 | – | 9.75
O=C(Nc1ccc(NC(=O)c2[nH]cnc2C(=O)NCCN2CCCCC2)cc1)c1ccc(F)cc1I [Example 62, N^5-{4-[(4-fluoro-2-iodobenzoyl)amino]phenyl}-N^4-[2-(piperidin-1-yl)ethyl]-1H-imidazole-4,5-dicarboxamide] | 0.84 | – | 24
Cc1nc(C(=O)Nc2ccc(NC(=O)c3ccc(F)cc3Cl)cc2)c(C(=O)NCCN(C)C)[nH]1 [Example 66, N^4-{4-[(2-chloro-4-fluorobenzoyl)amino]phenyl}-N^5-[2-(dimethylamino)ethyl]-2-methyl-1H-imidazole-4,5-dicarboxamide] | 0.02 | – | 6.2
Cc1nc(C(=O)Nc2ccc(NC(=O)c3ccc(F)cc3Cl)cc2)c(C(=O)NCCN2CCCCC2)[nH]1 [Example 67, N^4-{4-[(2-chloro-4-fluorobenzoyl)amino]phenyl}-2-methyl-N^5-[2-(piperidin-1-yl)ethyl]-1H-imidazole-4,5-dicarboxamide] | 0.004 | – | 13
CN(C)CCNC(=O)c1nc[nH]c1C(=O)Nc1ccc(NC(=O)c2ccc(F)cc2Cl)c(F)c1 [Example 73, N^5-{4-[(2-chloro-4-fluorobenzoyl)amino]-3-fluorophenyl}-N^4-[2-(dimethylamino)ethyl]-1H-imidazole-4,5-dicarboxamide] | 0.01 | – | 33
CCNC(=O)c1nc[nH]c1C(=O)Nc1ccc(NC(=O)c2cnccc2Cl)cc1 [Example 263, N^5-(4-{[(4-chloropyridin-3-yl)carbonyl]amino}phenyl)-N^4-ethyl-1H-imidazole-4,5-dicarboxamide] | 0.3 | – | 27.5
